From the SangsterLogP compilation come the findings set out here.

Molecules are shown by their SMILES.

The data set in a line: from Langlois, M.; Dubost, J.; Audry, E.; Dallet, P.; Colleter, J. (1989). Simultaneous determination of physicochemical constants usable in QSAR in a series of alpha-adrenergic amines. Analusis : chimie ….
With `c1ccc2c3c([nH]c2c1)C(c1ccc2c(c1)OCO2)NCC3` (centres undefined), the logP (in general, a log measure of how a compound divides between an organic and an aqueous phase) stood at 3.69. On to `Clc1ccc(C2NCCc3c2[nH]c2ccccc32)c(Cl)c1` (centres undefined), for which the logP came to 3.58. As for `O=[N+]([O-])c1cccc(C2NCCc3c2[nH]c2ccccc32)c1` (centres undefined), the figure is 3.04; as for `Fc1ccccc1C1NCCc2c1[nH]c1ccccc21` (centres undefined), 3.16; as for `O=[N+]([O-])c1ccc(Cl)c(C2NCCc3c2[nH]c2ccccc32)c1` (centres undefined), 3.33. `Clc1cccc(C2NCCc3c2[nH]c2ccccc32)c1` (centres undefined) displayed a logP of 3.47.

As for `Clc1ccc(C2NCCc3c2[nH]c2ccccc32)cc1Cl` (centres undefined), the logP was determined as 3.38.

`Clc1cccc(Cl)c1C1NCCc2c1[nH]c1ccccc21` (centres undefined) showed a logP of 3.34. For `c1ccc(C(CC2NCCc3c2[nH]c2ccccc32)c2ccccc2)cc1` (centres undefined) the value was 3.47.
